Experimental data reported in patent US7560468B2, “Substituted 1,4,8-triazaspiro[4,5]decan-2-one compounds” (Gruenenthal GmbH, priority 2004, dated 2009).

Columns and labels:
[1] = target: T1, 5-HT transporter (Rattus norvegicus, UniProt P31652); assay: Inhibition of 5-HT uptake in synaptosomes; format: biochemical; conditions: for inhibition at 1 µM: read-out: Uptake_5-HT, rat, 1 μM, % inhibition
T1 construct: from tissue; host or cells: rat brain synaptosomes (marrow/medulla and pons), P2 fraction

[2] = tested on: batrachotoxin (BTX) binding site of the sodium channel; assay: Affinity to the batrachotoxin (BTX) binding site of the sodium channel; conditions: rat cerebrocortex synaptosomes, [3H]-batrachotoxinin A20 α-benzoate 10 nM; test concentration not given

T1 sequence (P31652 whole entry): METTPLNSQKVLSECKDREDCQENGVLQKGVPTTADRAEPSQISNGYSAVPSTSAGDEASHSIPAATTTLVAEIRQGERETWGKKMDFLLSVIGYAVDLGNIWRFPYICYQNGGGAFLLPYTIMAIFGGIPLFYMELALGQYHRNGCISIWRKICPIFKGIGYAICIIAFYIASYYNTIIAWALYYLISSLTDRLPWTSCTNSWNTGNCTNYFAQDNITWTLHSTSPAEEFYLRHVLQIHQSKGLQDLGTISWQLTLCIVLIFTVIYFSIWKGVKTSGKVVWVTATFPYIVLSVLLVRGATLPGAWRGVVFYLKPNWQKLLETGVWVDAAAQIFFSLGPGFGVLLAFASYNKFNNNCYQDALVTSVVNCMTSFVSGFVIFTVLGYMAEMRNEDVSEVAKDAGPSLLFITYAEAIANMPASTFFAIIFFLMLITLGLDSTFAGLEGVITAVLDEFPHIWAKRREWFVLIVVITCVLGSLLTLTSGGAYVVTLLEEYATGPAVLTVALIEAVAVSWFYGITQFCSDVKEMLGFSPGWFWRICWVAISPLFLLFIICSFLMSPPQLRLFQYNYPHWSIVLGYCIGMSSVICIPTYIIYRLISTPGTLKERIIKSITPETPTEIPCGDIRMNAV

Row | SMILES | Uptake_5-HT, rat, 1 μM, % inhibition [1] | BTX Inhibition [2] | inhibition at 1 µM [1]
1 | CCCCOc1ccc(S(=O)(=O)N2CCC3(CC2)NCC(=O)N3Cc2ccccc2C#N)cc1 [Example 5, 2-[8-(4-Butoxy-benzolsulfonyl)-2-oxo-1,4,8-triazaspiro[4,5]dec-1-ylmethyl]-benzonitrile] | 30% | 59 | –
2 | CCC(C)(C)c1ccc(S(=O)(=O)N2CCC3(CC2)NCC(=O)N3Cc2ccccc2C#N)cc1 [Example 6, 2-{8-[4-(1,1-Dimethylpropyl)benzolesulfonyl]-2-oxo-1,4,8-triazaspiro[4,5]dec-1-ylmethyl}-benzonitrile] | 57% | 56 | –
3 | Cc1cc(C)c(S(=O)(=O)N2CCC3(CC2)NC(C(C)C)C(=O)N3Cc2ccccc2)c(C)c1 (centres unmarked) [Example 14, 1-Benzyl-3-isopropyl-8-(2,4,6-trimethylbenzolsulfonyl)-1,4,8-triazaspiro[4,5]decan-2-one] | 61% | 68 | –
4 | CCCCN1C(=O)C(CCSC)NC12CCN(S(=O)(=O)c1cccc(C)c1)CC2 (centres unmarked) [Example 18, 1-Butyl-3-(2-methylsulfanylethyl)-8-(toluol-3-sulfonyl)-1,4,8-triazaspiro[4,5]decan-2-one] | 68% | 32 | –
5 | CCCCN1C(=O)C(Cc2ccccc2)NC12CCN(S(=O)(=O)c1ccccc1C(F)(F)F)CC2 (centres unmarked) [Example 22, 3-Benzyl-1-butyl-8-(2-trifluoromethylbenzolsulfonyl)-1,4,8-triazaspiro[4,5]decan-2-one] | 66% | 38 | –
6 | COC(=O)c1ccccc1S(=O)(=O)N1CCC2(CC1)NC(CCSC)C(=O)N2Cc1ccc(F)cc1 (centres unmarked) [Example 23, Methyl 2-[1-(4-fluorobenzyl)-3-(2-methylsulfanylethyl)-2-oxo-1,4,8-triazaspiro[4,5]decan-8-sulfonyl]-benzoate] | – | 40 | 69%
7 | CSCCC1NC2(CCN(S(=O)(=O)c3ccccc3C(F)(F)F)CC2)N(Cc2ccc(F)cc2)C1=O (centres unmarked) [Example 25, 1-(4-Fluorobenzyl)-3-(2-methylsulfanylethyl)-8-(2-trifluoromethylbenzolsulfonyl)-1,4,8-triazaspiro[4,5]decan-2-one] | 58% | 57 | –
8 | CSCCC1NC2(CCN(S(=O)(=O)c3cc(C)c(Cl)cc3C)CC2)N(Cc2ccc(F)cc2)C1=O (centres unmarked) [Example 26, 8-(4-Chloro-2,5-dimethylbenzolsulfonyl)-1-(4-fluorobenzyl)-3-(2-methylsulfanylethyl)-1,4,8-triazaspiro[4,5]decan-2-one] | 68% | 38 | –
9 | COc1ccc(S(=O)(=O)N2CCC3(CC2)NC(Cc2ccccc2)C(=O)N3Cc2ccccc2)cc1OC (centres unmarked) [Example 29, 1,3-Dibenzyl-8-(3,4-dimethoxy-benzolsulfonyl)-1,4,8-triazaspiro[4,5]decan-2-one] | 75% | 47 | –
10 | CCCCN1C(=O)C(Cc2ccccc2)NC12CCN(S(=O)(=O)c1ccc(CC)cc1)CC2 (centres unmarked) [Example 33, 3-Benzyl-1-butyl-8-(4-ethylbenzolsulfonyl)-1,4,8-triazaspiro[4,5]decan-2-one] | 67% | 54 | –
11 | O=C1C(Cc2ccccc2)NC2(CCN(S(=O)(=O)c3ccccc3F)CC2)N1Cc1ccccc1 (centres unmarked) [Example 37, 1,3-Dibenzyl-8-(2-fluorobenzolsulfonyl)-1,4,8-triazaspiro[4,5]decan-2-one] | 73% | 61 | –
12 | COC(=O)c1ccccc1S(=O)(=O)N1CCC2(CC1)NC(CCSC)C(=O)N2Cc1ccccc1C#N (centres unmarked) [Example 38, Methyl 2-[1-(2-cyanobenzyl)-3-(2-methylsulfanylethyl)-2-oxo-1,4,8-triazaspiro[4,5]decan-8-sulfonyl]-benzoate] | – | – | 40%
13 | CN1C(=O)C(Cc2ccccc2)NC12CCN(S(=O)(=O)c1cccc(Cl)c1)CC2 (centres unmarked) [Example 40, 3-Benzyl-8-(3-chlorobenzolsulfonyl)-1-methyl-1,4,8-triazaspiro[4,5]decan-2-one] | 57% | – | –
14 | CCC(C)(C)c1ccc(S(=O)(=O)N2CCC3(CC2)NC(CCSC)C(=O)N3Cc2ccccc2)cc1 (centres unmarked) [Example 41, 1-Benzyl-8-[4-(1,1-dimethylpropyl)benzolesulfonyl]-3-(2-methylsulfanylethyl)-1,4,8-triazaspiro[4,5]decan-2-one] | 56% | – | –
15 | CSCCC1NC2(CCN(S(=O)(=O)c3ccc(C)cc3)CC2)N(Cc2ccc(F)cc2)C1=O (centres unmarked) [Example 44, 1-(4-Fluorobenzyl)-3-(2-methylsulfanylethyl)-8-(toluol-4-sulfonyl)-1,4,8-triazaspiro[4,5]decan-2-one] | 42% | 42 | –
16 | Cc1ccc(S(=O)(=O)N2CCC3(CC2)NC(Cc2ccccc2)C(=O)N3Cc2ccccc2)cc1 (centres unmarked) [Example 45, 1,3-Dibenzyl-8-(toluol-4-sulfonyl)-1,4,8-triazaspiro[4,5]decan-2-one] | 74% | 37 | –
17 | CCOC(=O)CN1C(=O)C(Cc2ccccc2)NC12CCN(S(=O)(=O)c1cccs1)CC2 (centres unmarked) [Example 48] | 85% | 30 | –

Row | SMILES | Uptake_5-HT, rat, 1 μM, % inhibition [1] | BTX Inhibition [2] | inhibition at 1 µM [1]
18 | COC(=O)c1ccc(CN2C(=O)CNC23CCN(S(=O)(=O)Cc2ccccc2)CC3)cc1 [Example 51, Methyl 4-(2-Oxo-8-benzolmethansulfonyl-1,4,8-triazaspiro[4,5]dec-1-ylmethyl)benzoate] | 62% | 31 | –
19 | CC(C)C1NC2(CCN(S(=O)(=O)c3ccc([N+](=O)[O-])cc3)CC2)N(Cc2cccc(C#N)c2)C1=O (centres unmarked) [Example 52, 3-[3-Isopropyl-8-(4-nitrobenzolsulfonyl)-2-oxo-1,4,8-triazaspiro[4,5]dec-1-ylmethyl]-benzonitrile] | 53% | – | –
20 | CN(C)S(=O)(=O)N1CCC2(CC1)NCC(=O)N2Cc1ccccc1F [Example 55, 1-(2-Fluorobenzyl)-2-oxo-1,4,8-triazaspiro[4,5]decan-8-sulfonic acid dimethylamide] | – | – | 57%
21 | CC1(C)C2CCC1(CS(=O)(=O)N1CCC3(CC1)NCC(=O)N3Cc1ccccc1F)C(=O)C2 (centres unmarked) [Example 56, 8-(7,7-Dimethyl-2-oxobicyclo[2.2.1]hept-1-ylmethansulfonyl)-1-(2-fluorobenzyl)-1,4,8-triazaspiro[4,5]decan-2-one] | – | 32 | 60%
22 | CCOC(=O)CN1C(=O)C(CCSC)NC12CCN(S(=O)(=O)Cc1ccccc1)CC2 (centres unmarked) [Example 57, Ethyl[3-(2-methylsulfanylethyl)-2-oxo-8-benzolmethansulfonyl-1,4,8-triazaspiro[4,5]dec-1-yl]-acetate] | 32% | 34 | –
23 | C=CCN1C(=O)C(CCSC)NC12CCN(S(=O)(=O)Cc1ccccc1)CC2 (centres unmarked) [Example 58, 1-Allyl-3-(2-methylsulfanylethyl)-8-benzolmethansulfonyl-1,4,8-triazaspiro[4,5]decan-2-one] | 56% | – | –
24 | Cc1cc(C)c(S(=O)(=O)N2CCC3(CC2)NCC(=O)N3Cc2cccc(C#N)c2)c(C)c1 [Example 59, 3-[2-Oxo-8-(2,4,6-trimethylbenzolsulfonyl)-1,4,8-triazaspiro[4,5]dec-1-ylmethyl]-benzonitrile] | 50% | 50 | –
25 | COC(=O)c1ccc(CN2C(=O)CNC23CCN(S(=O)(=O)c2c(C)cc(C)cc2C)CC3)cc1 [Example 60, Methyl-4-[2-oxo-8-(2,4,6-trimethylbenzolsulfonyl)-1,4,8-triazaspiro[4,5]dec-1-ylmethyl]-benzoate] | 65% | 59 | –
26 | CCOC(=O)CN1C(=O)C(Cc2ccccc2)NC12CCN(S(=O)(=O)c1ccc(Cl)s1)CC2 (centres unmarked) [Example 61, Ethyl[3-benzyl-8-(5-chlorothiophen-2-sulfonyl)-2-oxo-1,4,8-triazaspiro[4,5]dec-1-yl]-acetate] | – | 50 | 61%
27 | CCCCS(=O)(=O)N1CCC2(CC1)NC(Cc1ccccc1)C(=O)N2CC(=O)OCC (centres unmarked) [Example 62, Ethyl[3-benzyl-8-(butan-1-sulfonyl)-2-oxo-1,4,8-triazaspiro[4,5]dec-1-yl]-acetate] | – | – | 70%
28 | CC(C)NC(=S)N1CCC2(CC1)NC(=O)C(Cc1ccccc1)N2 (centres unmarked) [Example 103, 2-Benzyl-3-oxo-1,4,8-triazaspiro[4,5]decan-8-thiocarboxylic acid isopropylamide] | – | – | 41%
29 | C=CCN1C(=O)C(C(C)C)NC12CCN(C(=S)Nc1ccc(F)cc1)CC2 (centres unmarked) [Example 125, 1-Allyl-3-isopropyl-2-oxo-1,4,8-triazaspiro[4,5]decan-8-thiocarboxylic acid (4-fluorobenzol)amide] | 34% | – | –
30 | CCOC(=O)CN1C(=O)C(Cc2ccccc2)NC12CCN(C(=S)NC(=O)OCC)CC2 (centres unmarked) [Example 144, Ethyl(3-benzyl-8-ethoxycarbonylaminocarbothioyl-2-oxo-1,4,8-triazaspiro[4,5]dec-1-yl)acetate] | – | – | 47%
31 | C=CCN1C(=O)C(C(C)C)NC12CCN(C(=S)Nc1c(F)c(F)c(F)c(F)c1F)CC2 (centres unmarked) [Example 149, 1-Allyl-3-isopropyl-2-oxo-1,4,8-triazaspiro[4,5]decan-8-thiocarboxylic acid pentafluorobenzolamide-amide] | 55% | – | –
32 | CSCCC1NC2(CCN(C(=S)NC(C)C)CC2)N(Cc2ccc(F)cc2)C1=O (centres unmarked) [Example 176, 1-(4-Fluorobenzyl)-3-(2-methylsulfanylethyl)-2-oxo-1,4,8-triazaspiro[4,5]decan-8-thiocarboxylic acid isopropylamide] | – | – | 32%
33 | CSCCC1NC2(CCN(C(=O)Nc3cccc(F)c3)CC2)N(Cc2ccccc2C#N)C1=O (centres unmarked) [Example 226, 1-(2-Cyanobenzyl)-3-(2-methylsulfanylethyl)-2-oxo-1,4,8-triazaspiro[4,5]decan-8-carboxylic acid (3-fluorobenzol)amide] | 55% | – | –
